# Molecular target: IgE-Tb / sFcεRIα-Y131A-AF488 (Homo sapiens, UniProt P01854, N146Q/N252Q)
# Assay: IgE-Tb / sFcεRIα-Y131A-AF488 FRET assay (protocol for examples 234 to 501)
# Assay type: binding
# Conditions: examples 234 to 501: compound with IgE-Tb 30 minutes before sFcεRIα-Y131A-AF488, incubated 18 hours at room temperature; read-out: Y131A FRET IC50 range
# Procedure: For examples 234 to 501, the assay was conducted according to the following: Each assay reaction was conducted in a volume of 25 μl in a 384-well half-volume plate. 10 point compound serial dilutions (3-fold) were generated in DMSO at a concentration of ×50 that of the final assay concentration (FAC). Compound solutions were then prepared by diluting 10-fold in assay buffer. For the assay, 5l of diluted compound was added to 10 μl of IgE-Tb and incubated for 30 minutes before the addition of 10 μ[…]. FRET reagents FACs were 5 nM IgE-Tb, 25 nM […]. Usually the top FAC of compound in the assay was 10 μM. The final DMSO concentration was 2%. […] The maximum FRET signal (MAX) was measured in wells containing FRET reagents but no compound. The assay was incubated for 18 hours at room temperature, protected from light and evaporation, and with gentle agitation. Measurement of FRET for each well was carried out by exciting at 337 nm and measuring emission at 490/520 nm using a PHERAstar FSX plate reader (BMG Labtech). FRET ratio was calculated as follows: Emission at 520/7Emission at 490×1000. The FRET ratio was used for the data analysis. […] Z' above 0.5 was considered a good assay. Background signal (MIN) was subtracted from all wells. […] Percent inhibition was plotted against compound concentration. IC50 values for each compound were determined using four parameter logistic fit model using the XLFIT5 software package.
# Sequence of IgE-Tb / sFcεRIα-Y131A-AF488 (P01854 whole entry N146Q/N252Q): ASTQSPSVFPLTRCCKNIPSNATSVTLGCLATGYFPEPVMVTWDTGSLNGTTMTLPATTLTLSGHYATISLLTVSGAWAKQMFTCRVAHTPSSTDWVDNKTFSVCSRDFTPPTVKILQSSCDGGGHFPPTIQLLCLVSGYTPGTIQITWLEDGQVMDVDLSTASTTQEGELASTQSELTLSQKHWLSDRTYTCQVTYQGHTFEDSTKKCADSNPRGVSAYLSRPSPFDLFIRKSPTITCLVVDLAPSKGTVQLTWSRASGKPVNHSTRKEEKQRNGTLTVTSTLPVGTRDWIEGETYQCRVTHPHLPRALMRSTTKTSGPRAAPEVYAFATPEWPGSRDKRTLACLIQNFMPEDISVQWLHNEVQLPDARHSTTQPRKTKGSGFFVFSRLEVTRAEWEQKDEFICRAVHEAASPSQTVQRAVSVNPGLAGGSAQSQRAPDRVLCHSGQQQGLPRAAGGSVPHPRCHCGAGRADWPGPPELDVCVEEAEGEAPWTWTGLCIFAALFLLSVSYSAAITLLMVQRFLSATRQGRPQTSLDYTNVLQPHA
row,SMILES,IC50
1,"Cn1nc(OC(F)F)cc1Nc1nncn1[C@H]1CCc2sc(NC(=O)C3CC3)c(C(=O)NCC3CC3(F)F)c2C1 (mixture of isomers) [Example 458, (5S)-2-(cyclopropanecarbonylamino)-N-[(2,2-difluorocyclopropyl)methyl]-5-[3-[[5-(difluoromethoxy)-2-methylpyrazol-3-yl]amino]-1,2,4-triazol-4-yl]-4,5,6,7-tetrahydro-1-benzothiophene-3-carboxamide]",< 1 µM
2,"Cn1nc(C(F)F)cc1Nc1nncn1[C@H]1CCc2sc(NC(=O)C3CC3(F)F)c(C(=O)N[C@H]3C[C@H](F)C3)c2C1 (mixture of isomers) [Example 493, (5S)-2-[(2,2-difluorocyclopropanecarbonyl)amino]-5-[3-[[5-(difluoromethyl)-2-methyl-pyrazol-3-yl]amino]-1,2,4-triazol-4-yl]-N-(trans-3-fluorocyclobutyl)-4,5,6,7-tetrahydrobenzothiophene-3-carboxamide]",< 1 µM
3,"Cn1nc(C(F)F)cc1Nc1nncn1[C@H]1CCc2sc(NC(=O)C3CC3)c(C(=O)NC3CC34CC4)c2C1 (mixture of isomers) [Example 494, (5S)-2-cyclopropaneamido-5-(3-{[3-(difluoromethyl)-1-methyl-1H-pyrazol-5-yl]amino}-4H-1,2,4-triazol-4-yl)-N-{spiro[2.2]pentan-1-yl}-4,5,6,7-tetrahydro-1-benzothiophene-3-carboxamide]",< 1 µM
4,"Cn1nc(C(F)F)cc1Nc1nncn1[C@H]1CCc2sc(NC(=O)[C@@H]3C[C@H]3F)c(C(=O)NCC3CC3)c2C1 (racemic) [Example 366, (5S)—N-(cyclopropylmethyl)-5-[3-[[5-(difluoromethyl)-2-methylpyrazol-3-yl]amino]-1,2,4-triazol-4-yl]-2-[[(1RS,2SR)-2-fluorocyclopropanecarbonyl]amino]-4,5,6,7-tetrahydro-1-benzothiophene-3-carboxamide]",< 1 µM
5,"C[C@H]1c2c(sc(NC(=O)C3CC3)c2C(=O)NCC2CC2)CC[C@@H]1n1cnnc1Nc1cc(C(F)(F)F)nn1C (racemic) [Example 421, (4RS,5RS)-2-(cyclopropanecarbonylamino)-N-(cyclopropylmethyl)-4-methyl-5-[3-[[2-methyl-5-(trifluoromethyl)pyrazol-3-yl]amino]-1,2,4-triazol-4-yl]-4,5,6,7-tetrahydrobenzothiophene-3-carboxamide]",< 1 µM
6,"Cn1nc(C(F)F)cc1Nc1nncn1[C@H]1CCc2sc(NC(=O)C3CC3)c(C(=O)NC[C@H]3C[C@H](F)C3)c2C1 (racemic) [Example 497, (5S)-2-(cyclopropanecarbonylamino)-5-[3-[[5-(difluoromethyl)-2-methyl-pyrazol-3-yl]amino]-1,2,4-triazol-4-yl]-N-[(3-fluorocyclobutyl)methyl]-4,5,6,7-tetrahydrobenzothiophene-3-carboxamide]",< 1 µM
7,"C[C@H]1CCCN1C(=O)c1ncn([C@H]2CCc3sc(NC(=O)[C@H]4C[C@H]4F)c(C(=O)NCC4CC4)c3C2)c1N (relative stereo) [Example 259, (5S)-5-[5-amino-4-[(2S)-2-methylpyrrolidine-1-carbonyl]imidazol-1-yl]-N-(cyclopropylmethyl)-2-[[(1R*,2R*)-2-fluorocyclopropanecarbonyl]amino]-4,5,6,7-tetrahydrobenzothiophene-3-carboxamide]",< 1 µM
8,"Cn1nc(C(F)F)cc1Nc1nncn1[C@H]1CCc2sc(NC(=O)[C@@H]3CC3(F)F)c(C(=O)NC[C@@H]3C[C@@H]3F)c2C1 (relative stereo) [Example 284, (5S)-2-[[(1S*)-2,2-difluorocyclopropanecarbonyl]amino]-5-[3-[[5-(difluoromethyl)-2-methyl-pyrazol-3-yl]amino]-1,2,4-triazol-4-yl]-N-[[(1S,2S)-2-fluorocyclopropyl]methyl]-4,5,6,7-tetrahydrobenzothiophene-3-carboxamide [* or R]]",< 1 µM
9,"O=C(NCC1CC1)c1c(NC(=O)C2CC2)sc2c1C[C@@H](n1cnnc1N[C@H]1CN(C(=O)c3ccccc3)CC1(F)F)CC2 (relative stereo) [Example 285, (5S)-5-[3-[[(3S*)-1-benzoyl-4,4-difluoro-pyrrolidin-3-yl]amino]-1,2,4-triazol-4-yl]-2-(cyclopropanecarbonylamino)-N-(cyclopropylmethyl)-4,5,6,7-tetrahydrobenzothiophene-3-carboxamide [* or R]]",< 1 µM
10,"Cn1nc(C(F)F)cc1Nc1nncn1[C@H]1CCc2sc(NC(=O)[C@@H]3CC34CC4)c(C(=O)NCC3CC3)c2C1 (relative stereo) [Example 311, (5S)—N-(cyclopropylmethyl)-5-[3-[[5-(difluoromethyl)-2-methyl-pyrazol-3-yl]amino]-1,2,4-triazol-4-yl]-2-[[(2R*)-spiro[2.2]pentane-2-carbonyl]amino]-4,5,6,7-tetrahydrobenzothiophene-3-carboxamide [* or S]]",< 1 µM
11,"Cn1nc(OC(F)F)cc1Nc1nncn1[C@H]1CCc2sc(NC(=O)[C@H]3CC3(F)F)c(C(=O)NCC3CC3)c2C1 (relative stereo) [Example 345, (5S)—N-(cyclopropylmethyl)-2-[[(1R*)-2,2-difluorocyclopropanecarbonyl]amino]-5-[3-[[5-(difluoromethoxy)-2-methylpyrazol-3-yl]amino]-1,2,4-triazol-4-yl]-4,5,6,7-tetrahydro-1-benzothiophene-3-carboxamide (* or S)]",< 1 µM
12,"Cn1nc(C(F)F)cc1Nc1nncn1[C@H]1CCc2sc(NC(=O)[C@@H]3CC3(F)F)c(C(=O)NCC3CC3)c2C1 (relative stereo) [Example 365, (5S)—N-(cyclopropylmethyl)-2-[[(1R*)-2,2-difluorocyclopropanecarbonyl]amino]-5-[3-[[5-(difluoromethyl)-2-methylpyrazol-3-yl]amino]-1,2,4-triazol-4-yl]-4,5,6,7-tetrahydro-1-benzothiophene-3-carboxamide (* or S)]",< 1 µM
13,"C[C@@H]1C[C@H]1C(=O)Nc1sc2c(c1C(=O)NCC1CC1)C[C@@H](n1cnnc1Nc1cc(C(F)F)nn1C)CC2 (relative stereo) [Example 370, (5S)—N-(cyclopropylmethyl)-5-[3-[[5-(difluoromethyl)-2-methylpyrazol-3-yl]amino]-1,2,4-triazol-4-yl]-2-[[(1R*,2R*)-2-methylcyclopropanecarbonyl]amino]-4,5,6,7-tetrahydro-1-benzothiophene-3-carboxamide (* or S)]",< 1 µM
14,"C[C@H]1C[C@H]1C(=O)Nc1sc2c(c1C(=O)NCC1CC1)C[C@@H](n1cnnc1Nc1cc(C(F)F)nn1C)CC2 (relative stereo) [Example 371, (5S)—N-(cyclopropylmethyl)-5-[3-[[5-(difluoromethyl)-2-methylpyrazol-3-yl]amino]-1,2,4-triazol-4-yl]-2-[[(1R*,2S*)-2-methylcyclopropanecarbonyl]amino]-4,5,6,7-tetrahydro-1-benzothiophene-3-carboxamide (*1R,2S or 1S,2R)]",< 1 µM
15,"Cn1nc(C(F)F)cc1Nc1nncn1[C@H]1CCc2sc(NC(=O)C3CC3)c(C(=O)NC[C@@H]3CC3(C)C)c2C1 (relative stereo) [Example 372, (5S)-2-(cyclopropanecarbonylamino)-5-[3-[[5-(difluoromethyl)-2-methylpyrazol-3-yl]amino]-1,2,4-triazol-4-yl]-N-[[(1R*)-2,2-dimethylcyclopropyl]methyl]-4,5,6,7-tetrahydro-1-benzothiophene-3-carboxamide (* or S)]",< 1 µM
16,"Cn1nc(OC(F)F)cc1Nc1nncn1[C@H]1CCc2sc(NC(=O)[C@H]3C[C@@H]3F)c(C(=O)N[C@H]3CC34CC4)c2C1 (relative stereo) [Example 376, (5S)-5-[3-[[5-(difluoromethoxy)-2-methylpyrazol-3-yl]amino]-1,2,4-triazol-4-yl]-2-[[(1R,2S)-2-fluorocyclopropanecarbonyl]amino]-N-[(2R*)-spiro[2.2]pentan-2-yl]-4,5,6,7-tetrahydro-1-benzothiophene-3-carboxamide (* or S)]",< 1 µM
17,"COc1cc(Nc2nncn2[C@H]2CCc3sc(NC(=O)[C@@H]4CC45CC5)c(C(=O)NCC4CC4)c3C2)n(C)n1 (relative stereo) [Example 455, (5S)—N-(cyclopropylmethyl)-5-[3-[(5-methoxy-2-methyl-pyrazol-3-yl)amino]-1,2,4-triazo-4-yl]-2-[[(2R*)-spiro[2.2]pentane-2-carbonyl]amino]-4,5,6,7-tetrahydrobenzothiophene-3-carboxamide (* or S)]",< 1 µM
18,"COc1cc(Nc2nncn2[C@H]2CCc3sc(NC(=O)[C@H]4C[C@@H]4C)c(C(=O)N[C@@H]4CC45CC5)c3C2)n(C)n1 (relative stereo) [Example 465, (5S)-5-[3-[(5-methoxy-2-methyl-pyrazol-3-yl)amino]-1,2,4-triazol-4-yl]-2-[[(1S,2S)-2-methylcyclopropanecarbonyl]amino]-N-[(2R*)-spiro[2.2]pentan-2-yl]-4,5,6,7-tetrahydrobenzothiophene-3-carboxamide [* or 5]]",< 1 µM

# From US12018021B2 (UCB Biopharma SRL, priority 2018, dated 2024)
